The results in this text go back to US20230322747A1, “OXADIAZOLE HDAC6 INHIBITORS AND USES THEREOF” (Eikonizo Therapeutics, Inc., priority 2022, published 2023).

SMILES strings stand for the structures.

The target in one assay is Human HDAC6 (Homo sapiens (Human), UniProt Q9UBN7). Put plainly: HDAC6 enzymatic activity assay (Caliper endpoint or fluorogenic format). Conditions: for IC50: in vitro enzymatic; for Selectivity (6 v 8) (fold): ratio of HDAC8 IC50/HDAC6 IC50. The class given is biochemical.
Human HDAC6, sequence (Q9UBN7 whole entry): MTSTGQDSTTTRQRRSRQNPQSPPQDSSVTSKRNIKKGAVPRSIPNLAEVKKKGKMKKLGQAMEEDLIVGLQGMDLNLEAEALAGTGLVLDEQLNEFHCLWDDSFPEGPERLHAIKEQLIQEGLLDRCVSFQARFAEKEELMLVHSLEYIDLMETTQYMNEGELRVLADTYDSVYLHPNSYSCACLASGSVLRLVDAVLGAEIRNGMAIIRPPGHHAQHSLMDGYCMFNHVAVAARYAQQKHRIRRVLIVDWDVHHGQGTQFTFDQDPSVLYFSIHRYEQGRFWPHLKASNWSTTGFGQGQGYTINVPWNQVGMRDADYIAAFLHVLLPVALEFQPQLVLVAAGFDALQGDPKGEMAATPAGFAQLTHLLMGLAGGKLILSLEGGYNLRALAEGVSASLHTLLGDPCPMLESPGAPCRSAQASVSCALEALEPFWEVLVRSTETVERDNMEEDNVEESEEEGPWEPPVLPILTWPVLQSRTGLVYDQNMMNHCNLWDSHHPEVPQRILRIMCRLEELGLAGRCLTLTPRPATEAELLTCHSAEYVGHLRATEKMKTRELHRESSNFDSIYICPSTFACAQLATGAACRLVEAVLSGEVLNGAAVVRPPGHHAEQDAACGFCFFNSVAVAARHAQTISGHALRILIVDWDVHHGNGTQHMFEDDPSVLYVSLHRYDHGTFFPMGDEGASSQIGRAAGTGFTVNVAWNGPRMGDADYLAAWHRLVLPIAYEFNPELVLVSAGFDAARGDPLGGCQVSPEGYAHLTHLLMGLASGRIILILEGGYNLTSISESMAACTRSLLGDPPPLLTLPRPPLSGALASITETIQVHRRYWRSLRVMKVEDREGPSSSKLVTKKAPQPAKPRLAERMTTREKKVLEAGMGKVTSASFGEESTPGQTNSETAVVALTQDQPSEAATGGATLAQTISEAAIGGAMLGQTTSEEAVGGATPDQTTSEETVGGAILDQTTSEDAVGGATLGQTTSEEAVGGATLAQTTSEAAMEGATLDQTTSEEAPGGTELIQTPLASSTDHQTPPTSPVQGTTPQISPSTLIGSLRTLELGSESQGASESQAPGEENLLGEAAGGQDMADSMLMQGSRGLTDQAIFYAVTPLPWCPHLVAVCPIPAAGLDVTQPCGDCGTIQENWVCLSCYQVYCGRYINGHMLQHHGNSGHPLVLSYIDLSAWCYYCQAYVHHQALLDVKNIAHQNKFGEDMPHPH
The next assay concerns the target Human HDAC8 (Homo sapiens (Human), UniProt Q9BY41). The experiment in a line: Caliper endpoint assay for HDAC8 enzymatic activity. The class given is biochemical. Particulars: in vitro enzymatic.

Human HDAC8, sequence (Q9BY41 whole entry): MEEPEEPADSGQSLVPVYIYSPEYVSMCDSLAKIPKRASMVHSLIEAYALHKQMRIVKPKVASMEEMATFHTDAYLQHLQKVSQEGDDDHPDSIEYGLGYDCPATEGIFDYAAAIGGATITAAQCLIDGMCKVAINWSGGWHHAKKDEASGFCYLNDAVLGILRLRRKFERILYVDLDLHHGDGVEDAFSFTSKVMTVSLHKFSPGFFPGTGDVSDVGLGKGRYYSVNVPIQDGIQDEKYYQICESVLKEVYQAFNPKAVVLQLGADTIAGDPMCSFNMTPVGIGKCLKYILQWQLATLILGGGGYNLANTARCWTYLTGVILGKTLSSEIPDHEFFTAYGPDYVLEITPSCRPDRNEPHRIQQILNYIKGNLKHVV

`Cc1noc2cccc(OCc3ccc(-c4nnc(C(F)F)o4)cn3)c12` [Compound 60]: the IC50 – broadly, the concentration needed to halve the response being measured – was in the range of 1 to 100 nM against Human HDAC6 and 10000 to 100000 nM against Human HDAC8. Moreover, the “Selectivity (6 v 8) (fold)” value at Human HDAC6 was “V (V: >1000)”.
In the case of `Fc1ccc(OCc2ccc(-c3nnc(C(F)F)o3)cn2)c(Cl)c1` [Compound 4, 2-(6-((2-chloro-4-fluorophenoxy)methyl)pyridin-3-yl)-5-(difluoromethyl)-1,3,4-oxadiazole], the results for the IC50 against Human HDAC6 and at Human HDAC8 were 1 to 100 nM and over 100000 nM, respectively. For the same compound, the “Selectivity (6 v 8) (fold)” value on Human HDAC6 is on record as “V (V: >1000)”.
On the same counts, the results for `N#CCc1ccccc1OCc1ccc(-c2nnc(C(F)F)o2)cn1` [Compound 44] are 1 to 100 nM, over 100000 nM and “V (V: >1000)”.
As to `Fc1cncc(OCc2ccc(-c3nnc(C(F)F)o3)cn2)c1` [Compound 19, 2-(Difluoromethyl)-5-(6-(((5-fluoropyridin-3-yl)oxy)methyl)pyridin-3-yl)-1,3,4-oxadiazole], at Human HDAC6, the IC50 lay in the range of 1 to 100 nM and the “Selectivity (6 v 8) (fold)” value was “V (V: >1000)”. In addition, the IC50 against Human HDAC8 was over 100000 nM.
On the same counts, the results for `CC(C)n1cnc2ccc(OCc3ccc(-c4nnc(C(F)F)o4)cn3)cc21` [Compound 203] are 1000 to 10000 nM, “III (III: >10-100)” and over 100000 nM.
Turning to `CC(C)n1ccc(OCc2ccc(-c3nnc(C(F)F)o3)cn2)n1` [Compound 79], at Human HDAC6, the IC50 fell in the range of 1 to 100 nM and the “Selectivity (6 v 8) (fold)” value is recorded as “V (V: >1000)”. On Human HDAC8, this compound displayed a half-inhibitory concentration (IC50) of over 100000 nM.
In the case of `FC(F)c1nnc(-c2ccc(COc3ccc4ccncc4c3)nc2)o1` [Compound 31], the values for the concentration for half-maximal inhibition (IC50) against Human HDAC6 and against Human HDAC8 were 1 to 100 nM and 1000 to 10000 nM, respectively. Moreover, the “Selectivity (6 v 8) (fold)” value on Human HDAC6 is recorded as “IV (IV: >100-1000)”.
On the same counts, the results for `FC(F)c1nnc(-c2ccc(COc3cccnc3)nc2)o1` [Compound 17, 2-(difluoromethyl)-5-(6-((pyridin-3-yloxy)methyl)pyridin-3-yl)-1,3,4-oxadiazole] are 1 to 100 nM, 10000 to 100000 nM and “V (V: >1000)”.
On the same counts, the results for `N#Cc1ccc(F)c(OCc2ccc(-c3nnc(C(F)F)o3)cn2)c1` [Compound 49] are 1 to 100 nM, 10000 to 100000 nM and “IV (IV: >100-1000)”.
As to `Fc1ccc(OCc2ccc(-c3nnc(C(F)F)o3)cn2)nc1` [Compound 76], the values for the IC50 against Human HDAC6 and against Human HDAC8 were 1 to 100 nM and over 100000 nM, respectively. Besides, on Human HDAC6, the “Selectivity (6 v 8) (fold)” value is given as “V (V: >1000)”.
On the same counts, the results for `FC(F)c1nnc(-c2ccc(COc3ccc(Cl)cc3)nc2)o1` [Compound 8, 2-(6-((4-chlorophenoxy)methyl)pyridin-3-yl)-5-(difluoromethyl)-1,3,4-oxadiazole] are 1 to 100 nM, over 100000 nM and “V (V: >1000)”.
For `N#Cc1ccc(OCc2ccc(-c3nnc(C(F)F)o3)cn2)cc1F` [Compound 52], on Human HDAC6, the IC50 was in the range of 1 to 100 nM and the “Selectivity (6 v 8) (fold)” value is “V (V: >1000)”. Moreover, at Human HDAC8, the IC50 is over 100000 nM.
Regarding `FC(F)c1nnc(-c2ccc(COCC34CC5CC(CC(C5)O3)C4)nc2)o1` [Compound 20, 2-(6-(((2-oxaadamantan-1-yl)methoxy)methyl)pyridin-3-yl)-5-(difluoromethyl)-1,3,4-oxadiazole], on Human HDAC6, the IC50 fell in the range of 1 to 100 nM and the “Selectivity (6 v 8) (fold)” value was “V (V: >1000)”. On Human HDAC8, this compound had an IC50 of over 100000 nM.
As to `N#Cc1cc(F)ccc1OCc1ccc(-c2nnc(C(F)F)o2)cn1` [Compound 45], at Human HDAC6, the IC50 fell in the range of 1 to 100 nM and the “Selectivity (6 v 8) (fold)” value is “V (V: >1000)”. The compound further showed an IC50 on Human HDAC8 of over 100000 nM.
As to `FC(F)c1nnc(-c2ccc(COc3cccc4ccccc34)nc2)o1` [Compound 11, 2-(difluoromethyl)-5-(6-((naphthalen-1-yloxy)methyl)pyridin-3-yl)-1,3,4-oxadiazole], at Human HDAC6, the IC50 was 1 to 100 nM and the “Selectivity (6 v 8) (fold)” value was “V (V: >1000)”. Moreover, the IC50 on Human HDAC8 is over 100000 nM.
In the case of `Cc1cccnc1OCc1ccc(-c2nnc(C(F)F)o2)cn1` [Compound 73], the figures for the IC50 on Human HDAC6 and on Human HDAC8 were 100 to 1000 nM and over 100000 nM, respectively. Besides, on Human HDAC6, the “Selectivity (6 v 8) (fold)” value is listed as “V (V: >1000)”.
On the same counts, the results for `Fc1ccc(OCc2ccc(-c3nnc(C(F)F)o3)cn2)cc1F` [Compound 9, 2-(difluoromethyl)-5-(6-((3,4-difluorophenoxy)methyl)pyridin-3-yl)-1,3,4-oxadiazole] are 1 to 100 nM, over 100000 nM and “V (V: >1000)”.
On the same counts, the results for `FC(F)c1nnc(-c2ccc(COc3ccn4cnnc4c3)nc2)o1` [Compound 184, 2-(6-(([1,2,4]triazolo[4,3-a]pyridin-7-yloxy)methyl)pyridin-3-yl)-5-(difluoromethyl)-1,3,4-oxadiazole] are 100 to 1000 nM, over 100000 nM and “IV (IV: >100-1000)”.
On the same counts, the results for `Cc1ccc(OCc2ccc(-c3nnc(C(F)F)o3)cn2)cn1` [Compound 70] are 100 to 1000 nM, over 100000 nM and “V (V: >1000)”.
As to `FC(F)c1nnc(-c2ccc(COc3ccc(C(F)(F)F)nc3)nc2)o1` [Compound 91], at Human HDAC6, the IC50 was in the range of 1 to 100 nM and the “Selectivity (6 v 8) (fold)” value is recorded as “V (V: >1000)”. Besides, the IC50 at Human HDAC8 was over 100000 nM.
On the same counts, the results for `C#Cc1ccccc1OCc1ccc(-c2nnc(C(F)F)o2)cn1` [Compound 41] are 1 to 100 nM, “V (V: >1000)” and over 100000 nM.
On to `FC(F)c1nnc(-c2ccc(COc3ccc4ncccc4c3)nc2)o1` [Compound 62], for which, on Human HDAC6, the IC50 fell in the range of 1 to 100 nM and the “Selectivity (6 v 8) (fold)” value is recorded as “V (V: >1000)”. For the same compound, the 50% inhibitory concentration (IC50) on Human HDAC8 was in the range of 10000 to 100000 nM.
Take `CCn1cnc2ccc(OCc3ccc(-c4nnc(C(F)F)o4)cn3)cc21` [Compound 202]: on Human HDAC6, the IC50 was 100 to 1000 nM and the “Selectivity (6 v 8) (fold)” value is “IV (IV: >100-1000)”. On Human HDAC8, the IC50 is over 100000 nM.
On to `Fc1ccc(OCc2ncc(-c3nnc(C(F)F)o3)cn2)cc1` [Compound 1, 2-(difluoromethyl)-5-(2-((4-fluorophenoxy)methyl)pyrimidin-5-yl)-1,3,4-oxadiazole], for which, on Human HDAC6, the IC50 is 1 to 100 nM and the “Selectivity (6 v 8) (fold)” value is given as “V (V: >1000)”. The compound also had an IC50 on Human HDAC8 of over 100000 nM.
On the same counts, the results for `FC(F)c1nnc(-c2ccc(COc3cccc4ocnc34)nc2)o1` [Compound 28] are 1 to 100 nM, “V (V: >1000)” and over 100000 nM.
On the same counts, the results for `FC(F)c1nnc(-c2ccc(COc3ccc4c(c3)CCCC4)nc2)o1` [Compound 54] are 1 to 100 nM, “V (V: >1000)” and over 100000 nM.
On the same counts, the results for `FC(F)c1nnc(-c2ccc(COc3ccon3)nc2)o1` [Compound 64] are 100 to 1000 nM, “V (V: >1000)” and over 100000 nM.
As for `Fc1ccc(OCc2ncc(-c3nnc(C(F)F)o3)cc2F)cc1` [Compound 6, 2-(difluoromethyl)-5-(5-fluoro-6-((4-fluorophenoxy)methyl)pyridin-3-yl)-1,3,4-oxadiazole], on Human HDAC6, the IC50 was 1 to 100 nM and the “Selectivity (6 v 8) (fold)” value is “V (V: >1000)”. For the same compound, the IC50 against Human HDAC8 was over 100000 nM.
On the same counts, the results for `Fc1ccc(OCc2ccc(-c3nnc(C(F)F)o3)cn2)c(F)c1` [Compound 5, 2-(difluoromethyl)-5-(6-((2,4-difluorophenoxy)methyl)pyridin-3-yl)-1,3,4-oxadiazole] are 1 to 100 nM, “V (V: >1000)” and over 100000 nM.
As to `Cc1nc(Cl)cc(OCc2ccc(-c3nnc(C(F)F)o3)cn2)n1` [Compound 80], on Human HDAC6, the IC50 was in the range of 1 to 100 nM and the “Selectivity (6 v 8) (fold)” value is on record as “III (III: >10-100)”. This compound also returned an IC50 against Human HDAC8 of 1000 to 10000 nM.
For `Cn1cc(OCc2ccc(-c3nnc(C(F)F)o3)cn2)cn1` [Compound 65], the IC50 against Human HDAC6 was 100 to 1000 nM; on Human HDAC8, over 100000 nM. In addition, on Human HDAC6, the “Selectivity (6 v 8) (fold)” value was “V (V: >1000)”.
In the case of `N#Cc1ccc(F)cc1OCc1ccc(-c2nnc(C(F)F)o2)cn1` [Compound 50], on Human HDAC6, the IC50 was 1 to 100 nM and the “Selectivity (6 v 8) (fold)” value was “V (V: >1000)”. Also, the IC50 against Human HDAC8 was over 100000 nM.
On the same counts, the results for `Cc1cnccc1OCc1ccc(-c2nnc(C(F)F)o2)cn1` [Compound 75] are 1 to 100 nM, “IV (IV: >100-1000)” and 10000 to 100000 nM.
`Cn1ncc2cc(OCc3ccc(-c4nnc(C(F)F)o4)cn3)ccc21` [Compound 37]: at Human HDAC6, the concentration for half-maximal inhibition (IC50) lay within 1 to 100 nM and the “Selectivity (6 v 8) (fold)” value is “V (V: >1000)”. In addition, the IC50 on Human HDAC8 fell in the range of 10000 to 100000 nM.
On the same counts, the results for `FC(F)c1nnc(-c2ccc(COc3cccc(C(F)(F)F)n3)nc2)o1` [Compound 92] are 1 to 100 nM, “V (V: >1000)” and over 100000 nM.
Consider `FC(F)c1nnc(-c2ccc(COc3ccc(C4CC4)cn3)nc2)o1` [Compound 85, 2-[6-[(5-cyclopropyl-2-pyridyl)oxymethyl]-3-pyridyl]-5-(difluoromethyl)-1,3,4-oxadiazole], for which, on Human HDAC6, the half-maximal inhibitory concentration (IC50) lay within 100 to 1000 nM and the “Selectivity (6 v 8) (fold)” value is recorded as “V (V: >1000)”. Moreover, the IC50 at Human HDAC8 was over 100000 nM.
As for `FC(F)c1nnc(-c2ccc(COc3cccn4ccnc34)nc2)o1` [Compound 82], on Human HDAC6, the IC50 lay within 1 to 100 nM and the “Selectivity (6 v 8) (fold)” value was “V (V: >1000)”. On Human HDAC8, the half-maximal inhibitory concentration (IC50) is over 100000 nM.
`Fc1cccnc1OCc1ccc(-c2nnc(C(F)F)o2)cn1` [Compound 77, 2-(Difluoromethyl)-5-[6-[(3-fluoro-2-pyridyl)oxymethyl]-3-pyridyl]-1,3,4-oxadiazole]: at Human HDAC6, the IC50 is 1 to 100 nM and the “Selectivity (6 v 8) (fold)” value is given as “V (V: >1000)”. In addition, at Human HDAC8, the IC50 was over 100000 nM.
On the same counts, the results for `N#Cc1cccc(OCc2ccc(-c3nnc(C(F)F)o3)cn2)c1F` [Compound 46] are 1 to 100 nM, “V (V: >1000)” and over 100000 nM.
